Test systems include HS 578T breast; NCI/ADR-RES ovarian; KM12 colon; SF-295 CNS; TK-10 renal; MDA-MB-435; OVCAR-5 ovarian; HCT-116 colon; HT29 colon; HCT-15 colon.
What all share (assay): NCI tumour cell line growth inhibition, 48 h

Our source for the TGI and GI50 values is PubChem BioAssay (NCI).

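Results reflect a 48-hour exposure of cells in 96-well plates to compound at five concentrations. GI50 is the concentration that inhibits growth by half. TGI denotes the concentration required for complete inhibition of growth.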 Where a SMILES comes first, the peptide text is derived from it. The star is where a group is joined. Boc = CC(C)(C)OC(=O)*; OBn = c1ccc(CO*)cc1

On to `O=C(NCc1ccc(Cl)cc1)c1cc2sccc2nc1C(F)(F)F`, for which the TGI with HS 578T breast is 47.6 µM; in the experiment on NCI/ADR-RES ovarian it was more than 100 µM; in the experiment with KM12 colon, more than 100 µM; in the experiment with SF-295 CNS it was more than 100 µM; in the experiment with TK-10 renal, more than 100 µM; in the experiment with MDA-MB-435 it was more than 100 µM. Besides, the TGI in the experiment on OVCAR-5 ovarian, in the experiment on HCT-116 colon and in the experiment with HT29 colon was more than 100 µM each time.
Regarding `CC(C)(C)OC[C@H](O)CC#N`, the TGI with HS 578T breast, in the experiment on KM12 colon, in the experiment with HCT-15 colon, in the experiment with SF-295 CNS, in the experiment on TK-10 renal and with MDA-MB-435 was more than 100 µM throughout. In addition, the TGI in the experiment on OVCAR-5 ovarian, in the experiment on HCT-116 colon and with HT29 colon was more than 100 µM throughout.
With `C#CCn1c(=O)c(C#N)c(O)c2cc3ccccc3nc21`, the TGI in the experiment with NCI/ADR-RES ovarian, with KM12 colon, in the experiment with HCT-15 colon, in the experiment with SF-295 CNS, with OVCAR-5 ovarian and with HCT-116 colon was more than 100 µM each time. The TGI in the experiment with HT29 colon is more than 100 µM.
`COc1cc(S(=O)(=O)Nc2ccc(-c3csc(N4C(=O)CSC4c4ccccc4)n3)cc2)ccc1Cl` (stereo unspecified): the TGI in the experiment with HS 578T breast, in the experiment on NCI/ADR-RES ovarian, with KM12 colon, in the experiment on HCT-15 colon, in the experiment with SF-295 CNS and in the experiment with MDA-MB-435 was more than 100 µM throughout. For the same compound, the TGI in the experiment on OVCAR-5 ovarian, in the experiment with HCT-116 colon and with HT29 colon was more than 100 µM in each case.
For `CC(C)(C)OC(=O)NC(Cc1ccccc1)C(=O)NC(Cc1ccccc1)C(=O)NCC(=O)OCc1ccccc1` (stereo not drawn) (Boc-Phe-Phe-Gly-OBn; configuration not given here), the TGI with NCI/ADR-RES ovarian was more than 100 µM; in the experiment on HCT-15 colon, 64.7 µM; in the experiment on TK-10 renal it was 53.1 µM; in the experiment on MDA-MB-435 it was more than 100 µM; with OVCAR-5 ovarian, more than 100 µM; with HCT-116 colon it was 40.2 µM. Further, the TGI in the experiment with HT29 colon is 40.4 µM.
For the compound `C[N+](C)(C)c1ncnc2c1ncn2C1CCCCO1` (stereo unspecified), the TGI in the experiment with HS 578T breast, with NCI/ADR-RES ovarian, in the experiment on KM12 colon, in the experiment with SF-295 CNS, in the experiment with TK-10 renal and in the experiment on MDA-MB-435 was more than 100 µM each time. Besides, the TGI in the experiment on OVCAR-5 ovarian, in the experiment on HCT-116 colon and in the experiment on HT29 colon was more than 100 µM throughout.
In the case of `Cc1ccc(S(=O)(=O)c2c(O)c3ccccc3n(C)c2=O)cc1`, the TGI in the experiment with HS 578T breast, in the experiment on NCI/ADR-RES ovarian, in the experiment with KM12 colon, with HCT-15 colon, in the experiment on SF-295 CNS and with MDA-MB-435 was more than 100 µM throughout. Moreover, the TGI with OVCAR-5 ovarian, in the experiment on HCT-116 colon and in the experiment on HT29 colon was more than 100 µM throughout.
As for `CCCCOCn1c(=O)[nH]c(=O)c2cc(Br)ccc21`, the TGI was 40.3 µM in the experiment with NCI/ADR-RES ovarian; more than 100 µM with KM12 colon; more than 100 µM with HCT-15 colon; more than 100 µM in the experiment on SF-295 CNS; more than 100 µM in the experiment on TK-10 renal; more than 100 µM with MDA-MB-435. Also, the TGI with OVCAR-5 ovarian, in the experiment on HCT-116 colon and with HT29 colon was more than 100 µM in each case.
`Cc1ccc(C(=O)/C(C#N)=C/Nc2c(C)n(C)n(-c3ccccc3)c2=O)cc1`: the TGI in the experiment on HS 578T breast, in the experiment with KM12 colon, with HCT-15 colon, in the experiment on SF-295 CNS, with TK-10 renal and in the experiment with MDA-MB-435 was more than 100 µM each time. Besides, the TGI in the experiment with OVCAR-5 ovarian, with HCT-116 colon and with HT29 colon was more than 100 µM each time.
Turning to `NNC(=S)N1CCN(C(=S)NN)CC1`, the TGI in the experiment on HS 578T breast, in the experiment with KM12 colon, in the experiment on SF-295 CNS, in the experiment with MDA-MB-435, in the experiment with OVCAR-5 ovarian and with HCT-116 colon was more than 100 µM each time. In addition, in the experiment with HT29 colon, the TGI is more than 100 µM.
For the compound `COc1ccc(C(=O)N2c3ccccc3Sc3ccccc32)c(C(F)(F)F)c1`, the GI50 is 0.472 µM with HS 578T breast; 0.37 µM in the experiment on NCI/ADR-RES ovarian; 0.413 µM with KM12 colon; 0.405 µM in the experiment on HCT-15 colon; 0.372 µM with SF-295 CNS; 16.7 µM in the experiment with TK-10 renal. Also, the GI50 with OVCAR-5 ovarian was 1.61 µM; in the experiment with HCT-116 colon, 0.505 µM; in the experiment with HT29 colon it was 0.362 µM. The TGI with HS 578T breast is more than 100 µM; with NCI/ADR-RES ovarian, more than 100 µM; in the experiment on KM12 colon it was 34.4 µM; in the experiment with HCT-15 colon, more than 100 µM; in the experiment on SF-295 CNS, more than 100 µM; with TK-10 renal, more than 100 µM. For the same compound, the TGI with OVCAR-5 ovarian, in the experiment with HCT-116 colon and with HT29 colon was more than 100 µM in each case.
On to `COc1c2cc(C(C)(C)C)cc1Cc1cccc(c1O)Cc1cc(C(C)(C)C)cc(c1OC)Cc1cccc(c1O)Cc1cc(C(C)(C)C)cc(c1OC)Cc1cccc(c1O)C2`, for which the TGI in the experiment on NCI/ADR-RES ovarian, in the experiment on KM12 colon, in the experiment on HCT-15 colon, with SF-295 CNS, with MDA-MB-435 and in the experiment with OVCAR-5 ovarian was more than 100 µM each time. Also, the TGI with HCT-116 colon and in the experiment with HT29 colon was more than 100 µM in each case.
Regarding `CC(=O)O[C@H]1C(=O)[C@@]2(C)[C@H]([C@H](OC(=O)c3ccccc3)[C@]3(O)C[C@H](OC(=O)[C@H](O)[C@@H](NC(=O)CC(C)(C)C)c4ccccc4)C(C)=C1C3(C)C)C1(OC(C)=O)CO[C@@H]1C[C@@H]2O` (stereo partly specified), the TGI is 0.00653 µM in the experiment on HS 578T breast; more than 10 µM in the experiment with NCI/ADR-RES ovarian; more than 5.78 µM in the experiment on HCT-15 colon; more than 10 µM in the experiment on TK-10 renal; more than 2.93 µM in the experiment on OVCAR-5 ovarian; more than 3.34 µM in the experiment on HCT-116 colon. In addition, the TGI in the experiment with HT29 colon was found to be 0.0133 µM.
Consider `CC(=O)c1cc2c(s1)C(=O)c1ccccc1C2=O`, for which the TGI in the experiment with HS 578T breast is more than 67.6 µM; in the experiment with NCI/ADR-RES ovarian it was 6.17 µM; in the experiment on KM12 colon it was 11.5 µM; with SF-295 CNS, 8.99 µM; with TK-10 renal, 42.3 µM; with MDA-MB-435 it was 2.21 µM. Also, the TGI in the experiment on OVCAR-5 ovarian was 20.6 µM; in the experiment on HCT-116 colon it was more than 31.2 µM; in the experiment with HT29 colon, 21.4 µM.
